In PubChem BioAssay (NCI):
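Compound exposure: 48 hours, 5 concentrations, 96-well plates. TGI denotes the concentration required for complete inhibition of growth.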

Assays:
Experiment in all cases: NCI anticancer screen, dose series, 48 h
SNB-19 CNS = tested on: SNB-19 CNS
NCI-H23 lung = tested on: NCI-H23 lung
HCT-116 colon = tested on: HCT-116 colon
MALME-3M melanoma = tested on: MALME-3M melanoma
HCC-2998 colon = tested on: HCC-2998 colon
CAKI-1 renal = tested on: CAKI-1 renal
SK-OV-3 ovarian = tested on: SK-OV-3 ovarian
U251 CNS = tested on: U251 CNS
NCI/ADR-RES ovarian = tested on: NCI/ADR-RES ovarian
MDA-MB-231 breast = tested on: MDA-MB-231 breast
TK-10 renal = tested on: TK-10 renal
HOP-62 NSCLC = tested on: HOP-62 NSCLC
HT29 colon = tested on: HT29 colon
MDA-N = tested on: MDA-N
SK-MEL-2 melanoma = tested on: SK-MEL-2 melanoma
KM12 colon = tested on: KM12 colon
NCI-H522 lung = tested on: NCI-H522 lung
HOP-92 NSCLC = tested on: HOP-92 NSCLC
RPMI-8226 leukemia = tested on: RPMI-8226 leukemia

| Structure (SMILES) | TGI (SNB-19 CNS) [µM] | TGI (NCI-H23 lung) [µM] | TGI (HCT-116 colon) [µM] | TGI (MALME-3M melanoma) [µM] | TGI (HCC-2998 colon) [µM] | TGI (CAKI-1 renal) [µM] | TGI (SK-OV-3 ovarian) [µM] | TGI (U251 CNS) [µM] | TGI (NCI/ADR-RES ovarian) [µM] | TGI (MDA-MB-231 breast) [µM] | TGI (TK-10 renal) [µM] | TGI (HOP-62 NSCLC) [µM] | TGI (HT29 colon) [µM] | TGI (MDA-N) [µM] | TGI (SK-MEL-2 melanoma) [µM] | TGI (KM12 colon) [µM] | TGI (NCI-H522 lung) [µM] | TGI (HOP-92 NSCLC) [µM] | TGI (RPMI-8226 leukemia) [µM] |
| --- | --- | --- | --- | --- | --- | --- | --- | --- | --- | --- | --- | --- | --- | --- | --- | --- | --- | --- | --- |
| c1ccc(C2=NCCN2)c(C2=NCCN2)c1 | > 100 | > 100 | > 100 | > 100 | > 100 | > 100 | > 100 | > 100 | > 100 | > 100 | > 100 | > 100 | > 100 | > 100 | > 100 | > 100 | > 100 | > 100 | > 100 |
| COc1cccc2c1CCc1cc3c(N)nc(N)nc3nc1-2 | 26.7 | 18.2 | 8.09 | 10.3 | 5.78 | 45.7 | 40.3 | > 38.3 | 46.7 | 15.9 | 47.3 | 20.1 | 17.3 | 18.1 | 33.9 | 37.5 | 10.8 | 32.6 | > 100 |
| Nc1nc(N)c2cc(-c3ccccc3)cnc2n1 | 38.3 | 25.9 | 17.3 | 21.7 | > 100 | 29.5 | > 100 | 42 | > 100 | 20.4 | 29.9 | 40.9 | 21 | 25.4 | > 100 | 30.1 | 44.9 | 30.1 | 48.9 |
| Cc1occc1C(=S)Nc1ccc(Cl)c(C(=O)OC(C(C)C)C(C)C)c1 | 58.4 | 23 | 24.5 | 26 | 21.9 | 35.4 | 53.2 | 34.1 | 26.3 | 27.2 | 32.4 | 42.3 | 33.5 | 29 | 38.4 | 29.9 | 25.9 | 22.6 | 29.6 |
| CC1CN=C(Nc2ccccc2)S1 (stereo not drawn) | > 100 | > 100 | > 100 | > 100 | > 100 | > 100 | > 100 | > 100 | > 100 | > 100 | > 100 | > 100 | > 100 | > 100 | > 100 | > 100 | > 100 | > 100 | > 100 |
| O=C(N/N=C/c1c(-c2ccccc2)no[n+]1[O-])N1CCOCC1 | > 100 | > 100 | > 100 | > 100 | > 100 | > 100 | > 100 | > 100 | > 100 | > 100 | > 100 | > 100 | > 100 | > 100 | > 100 | > 100 | > 100 | > 100 | > 100 |
| O=c1[nH]/c(=C/c2ccc(OCc3ccccc3)cn2)c(=O)[nH]/c1=C/c1ccc(F)cc1 | > 34.2 | > 50.4 | > 100 | > 51.8 | > 40.3 | > 100 | > 37.8 | > 35.7 | > 37 | > 51.3 | > 39.7 | > 35.5 | > 32.4 | 0.259 | > 52.2 | > 40.9 | 9.06 | > 37.7 | 10.8 |
| Oc1cc2c3c(c1)CCCN3CCC2 | > 10 | > 10 | > 10 | > 10 | > 10 | > 10 | > 10 | > 10 | > 10 | > 10 | > 10 | > 10 | > 10 | > 10 | > 10 | > 10 | > 10 | > 10 | > 10 |
| Cc1c(S(=O)(=O)O)ccc(N=Nc2c(O)c(C(=O)O)cc3ccccc23)c1Cl | > 100 | > 100 | > 100 | > 100 | > 100 | > 100 | > 100 | > 100 | > 100 | > 100 | > 100 | > 100 | > 100 | > 100 | > 100 | > 100 | > 100 | > 100 | > 100 |
| CN1C/C(=C\c2cccs2)C2=NN(C)C(c3cccs3)C2C1 (stereo not drawn) | > 100 | > 100 | > 100 | > 100 | > 100 | > 100 | > 100 | > 100 | > 100 | > 100 | > 100 | > 100 | > 100 | > 100 | 81.2 | > 100 | > 100 | > 100 | 95.3 |
| COC(=O)c1ccccc1C1CN=NC12Cc1ccccc1C2=O (stereo not drawn) | > 100 | > 100 | > 100 | > 100 | > 100 | > 100 | > 100 | > 100 | > 100 | > 100 | > 100 | > 100 | > 100 | > 100 | > 100 | > 100 | > 100 | > 100 | > 100 |
| CCn1c(SCC(=O)N/N=C/c2ccccc2)nc2ccccc2c1=O | 71.3 | > 100 | > 100 | > 94.6 | > 100 | 22.4 | 27.1 | > 70.9 | > 100 | 80.8 | > 91 | > 78.3 | > 100 | > 29.3 | > 46.4 | > 68.8 | 27.5 | > 79 | > 100 |
